Laboratory results: patent US9062066B2, “Anti-inflammatory compound having inhibitory activity against multiple tyrosine kinases and pharmaceutical composition containing same” (KOREA INSTITUTE OF SCIENCE AND TECHNOLOGY, priority 2010, dated 2015)
Read-outs that look alike come from different tables or passages of the source.

Legend:
Lyn tyrosine kinase = Lyn tyrosine kinase (Homo sapiens (Human), UniProt P07948); test: in vitro Lyn tyrosine kinase inhibition; format: biochemical; settings: 1 uM compound; read-out: % inhibition against Lyn
DDR2 tyrosine kinase = DDR2 tyrosine kinase (Homo sapiens (Human), UniProt Q16832); test: in vitro DDR2 tyrosine kinase inhibition (GST-fused kinase domain); format: biochemical; settings: 1 uM compound; read-out: % inhibition against DDR2
[1] = tested on: TNF-α synthesis in J744A.1 macrophages; test: inhibition of TNF-α synthesis in LPS-activated macrophages (ELISA); format: cell-based; settings: Macrophage, read-out: Inhibition (%) of TNF-α synthesis
[2] = tested on: α-smooth muscle actin protein expression in skin fibroblast cells; test: inhibition of α-smooth muscle actin expression in fibroblast activated by type I collagen and TGF-β1 (western blotting); format: cell-based, Balb/C mouse; settings: Mus musculus, 0.5 uM compound, 10 ng/ml TGF-β1, 48 hours, type I collagen, read-out: Inhibition (%) of α-smooth muscle actin increase
From the text: When fibroblast, […] alpha smooth muscle cells are converted to myofibroblast by activation, one of characteristic features is that α-smooth muscle actin protein expression is increased. Also myoblast cells with the increased α-smooth muscle actin expression have a character of an increased migration. These phenomena appear together with the activation of inflammatory cells and the activated myoblast-type cells are known to contribute directly to the pathology of inflammatory diseases. […] In this experiment, the expression level of alpha smooth muscle actin can be quantificated by measuring the density of α-smooth muscle actin protein band with densitometer after developing the X-ray film of chemiluminescence signal in western blotting experiment.

mouse skin fibroblast = test: inhibition of migration of activated fibroblast (scratch wound); format: cell-based; settings: 0.5 uM compound, 10 ng/ml TGF-β1, 24 hours, read-out: Inhibition (%) of migration of activated fibroblast
Protocol: The straight line of regular width was made using a micro pipette tip for a scratch wound on the mono-layer culture, and then the culture was exchanged to DMEM medium and incubated with 10 ng/ml of TGF-β1 in cell culture incubator of 37° C. for 24 hours. The cultured cells were fixed using formalin and stained with crystal violet. Photo-pictures were taken at 100× magnification in five location selected randomly in the scratched wound site of each stained culture dish and then the number of the cells moved into the scratched wound area was counted and averaged.

[3] = tested on: NO synthesis in J744A.1 macrophage; test: inhibition of nitric oxide (NO) synthesis in LPS-activated macrophages (Griess reagent); format: cell-based; settings: read-out: Inhibition (%) of NO synthesis
c-Src tyrosine kinase = c-Src tyrosine kinase (Homo sapiens (Human), UniProt P12931); test: in vitro c-Src tyrosine kinase inhibition (32P-ATP, poly(D4Y)n substrate); format: biochemical; settings: 1 uM compound; read-out: % inhibition against c-Src
Fgr tyrosine kinase = Fgr tyrosine kinase (Homo sapiens (Human), UniProt P09769); test: in vitro Fgr tyrosine kinase inhibition; format: biochemical; settings: 1 uM compound; read-out: % inhibition against Fgr
Hck tyrosine kinase = Hck tyrosine kinase (Homo sapiens (Human), UniProt P08631); test: in vitro Hck tyrosine kinase inhibition; format: biochemical; settings: 1 uM compound; read-out: % inhibition against Hck
[4] = tested on: oxazolone-induced skin inflammation of Balb/C mouse ears; test: mouse skin inflammatory model induced by oxazolone (ear thickness); format: in vivo; settings: 20 ul of 0.1% compound topical on ear, 36 hours after oxazolone
Protocol: The compounds of the present invention were evaluated for their effective anti-inflammatory activity using a skin inflammatory animal model of 8 weeks old Balb/C mouse ears induced by oxazolone. […] After 4 days, the thickness of ear was measured using a caliper for the thickness value of ear before the induction of inflammation. […] After 36 hours, the thickness of ear was measured for the increased thickness induced by inflammation. […] The average value was obtained in each group (n=4).

DDR1 tyrosine kinase = DDR1 tyrosine kinase (Homo sapiens (Human), UniProt Q08345); test: in vitro DDR1 tyrosine kinase inhibition (GST-fused kinase domain); format: biochemical; settings: 1 uM compound; read-out: % inhibition against DDR1
[5] = 10 μM compound, 100 ng/ml LPS, 6 hours

DDR2 tyrosine kinase, sequence (Q16832 563-849): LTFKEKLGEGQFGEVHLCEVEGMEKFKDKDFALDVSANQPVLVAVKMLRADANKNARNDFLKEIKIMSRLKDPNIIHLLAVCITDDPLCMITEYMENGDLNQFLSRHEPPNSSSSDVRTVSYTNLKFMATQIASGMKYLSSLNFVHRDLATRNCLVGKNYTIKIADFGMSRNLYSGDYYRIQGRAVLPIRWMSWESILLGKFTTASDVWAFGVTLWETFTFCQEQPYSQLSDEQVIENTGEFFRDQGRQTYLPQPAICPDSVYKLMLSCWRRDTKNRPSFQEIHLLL
DDR1 tyrosine kinase, sequence (Q08345 610-905): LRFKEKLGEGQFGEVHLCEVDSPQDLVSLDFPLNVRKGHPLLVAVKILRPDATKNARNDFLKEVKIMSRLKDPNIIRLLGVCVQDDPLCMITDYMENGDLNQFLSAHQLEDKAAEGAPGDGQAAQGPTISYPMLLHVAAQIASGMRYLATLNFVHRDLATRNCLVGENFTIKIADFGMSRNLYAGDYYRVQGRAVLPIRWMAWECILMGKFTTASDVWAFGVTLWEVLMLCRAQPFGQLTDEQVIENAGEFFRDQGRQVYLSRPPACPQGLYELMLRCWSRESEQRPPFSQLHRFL
c-Src tyrosine kinase, sequence (P12931 whole entry, looked up): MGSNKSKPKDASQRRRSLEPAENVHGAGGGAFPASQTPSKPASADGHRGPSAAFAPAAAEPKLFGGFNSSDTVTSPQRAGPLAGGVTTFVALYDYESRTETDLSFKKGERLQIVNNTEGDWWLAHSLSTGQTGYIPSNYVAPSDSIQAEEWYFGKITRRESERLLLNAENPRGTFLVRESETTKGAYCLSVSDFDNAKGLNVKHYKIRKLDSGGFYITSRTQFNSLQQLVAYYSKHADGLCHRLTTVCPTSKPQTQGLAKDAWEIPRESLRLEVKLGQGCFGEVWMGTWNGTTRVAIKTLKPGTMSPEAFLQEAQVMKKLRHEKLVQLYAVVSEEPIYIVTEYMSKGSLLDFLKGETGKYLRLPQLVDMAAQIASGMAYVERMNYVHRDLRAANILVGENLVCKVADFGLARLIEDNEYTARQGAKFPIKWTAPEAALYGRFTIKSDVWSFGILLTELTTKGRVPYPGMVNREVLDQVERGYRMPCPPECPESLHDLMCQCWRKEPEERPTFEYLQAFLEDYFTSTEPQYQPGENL
Fgr tyrosine kinase, sequence (P09769 whole entry): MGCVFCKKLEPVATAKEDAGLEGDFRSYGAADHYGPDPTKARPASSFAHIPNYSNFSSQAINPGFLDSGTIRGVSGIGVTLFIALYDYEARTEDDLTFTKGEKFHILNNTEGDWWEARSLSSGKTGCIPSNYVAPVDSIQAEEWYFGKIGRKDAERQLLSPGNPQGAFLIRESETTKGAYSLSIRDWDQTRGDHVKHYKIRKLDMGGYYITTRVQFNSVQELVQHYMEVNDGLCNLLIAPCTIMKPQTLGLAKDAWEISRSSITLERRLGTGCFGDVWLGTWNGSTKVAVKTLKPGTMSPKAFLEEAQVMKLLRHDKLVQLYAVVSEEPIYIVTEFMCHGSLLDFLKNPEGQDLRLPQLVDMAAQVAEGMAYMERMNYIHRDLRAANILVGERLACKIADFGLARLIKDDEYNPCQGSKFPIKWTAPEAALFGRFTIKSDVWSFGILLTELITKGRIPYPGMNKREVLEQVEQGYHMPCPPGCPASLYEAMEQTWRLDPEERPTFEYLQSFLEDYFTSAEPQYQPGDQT
Lyn tyrosine kinase, sequence (P07948 whole entry, the tested form may be a part): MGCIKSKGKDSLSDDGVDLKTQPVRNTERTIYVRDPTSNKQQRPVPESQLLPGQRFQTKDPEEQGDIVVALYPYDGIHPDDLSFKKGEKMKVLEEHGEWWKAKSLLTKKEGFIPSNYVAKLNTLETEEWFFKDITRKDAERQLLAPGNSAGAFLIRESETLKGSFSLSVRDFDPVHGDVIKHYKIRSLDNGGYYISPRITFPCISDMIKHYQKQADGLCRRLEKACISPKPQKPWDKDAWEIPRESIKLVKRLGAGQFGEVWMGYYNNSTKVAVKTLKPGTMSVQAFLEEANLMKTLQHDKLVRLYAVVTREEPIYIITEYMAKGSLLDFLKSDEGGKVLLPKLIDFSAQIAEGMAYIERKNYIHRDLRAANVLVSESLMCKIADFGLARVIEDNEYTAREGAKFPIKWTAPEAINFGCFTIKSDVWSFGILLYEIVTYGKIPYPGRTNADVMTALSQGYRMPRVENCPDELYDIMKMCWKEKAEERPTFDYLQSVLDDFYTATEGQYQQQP
Hck tyrosine kinase, sequence (P08631 whole entry): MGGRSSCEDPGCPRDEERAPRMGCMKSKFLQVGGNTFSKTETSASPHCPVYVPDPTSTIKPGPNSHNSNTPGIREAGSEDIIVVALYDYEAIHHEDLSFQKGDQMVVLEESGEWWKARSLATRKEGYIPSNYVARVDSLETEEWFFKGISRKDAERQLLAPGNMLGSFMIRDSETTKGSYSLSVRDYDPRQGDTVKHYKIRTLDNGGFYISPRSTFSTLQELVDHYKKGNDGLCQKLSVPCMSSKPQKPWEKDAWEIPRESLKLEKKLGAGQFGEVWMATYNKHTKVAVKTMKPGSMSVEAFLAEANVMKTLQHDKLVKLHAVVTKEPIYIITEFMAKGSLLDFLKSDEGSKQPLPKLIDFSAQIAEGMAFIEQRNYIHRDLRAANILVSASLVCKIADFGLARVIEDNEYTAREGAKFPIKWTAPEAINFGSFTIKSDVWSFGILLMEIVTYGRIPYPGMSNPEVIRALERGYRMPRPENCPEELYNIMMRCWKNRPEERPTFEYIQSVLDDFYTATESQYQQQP

Structure (SMILES) | inhibition at 1 µM (Lyn tyrosine kinase) [%] | inhibition at 1 µM (DDR2 tyrosine kinase) [%] | inhibition at 10 µM ([1]; 6 h) [%] | inhibition at 0.5 µM [2] [%] | inhibition at 0.5 µM (mouse skin fibroblast) [%] | inhibition at 10 µM ([3]; 24 h) [%] | inhibition at 1 µM (c-Src tyrosine kinase) [%] | inhibition at 1 µM (Fgr tyrosine kinase) [%] | inhibition at 1 µM (Hck tyrosine kinase) [%] | Inhibition (%) of increase of ear thickness [4] [%] | inhibition at 1 µM (DDR1 tyrosine kinase) [%] | inhibition at 10 µM [1, 5] [%] | inhibition at 10 µM ([3]; 10 μM compound, LPS, 24 hours) [%]
Oc1cccc(Nc2ncnc3cc(-c4ccc(CN5CCOCC5)o4)sc23)c1 [LCB 03-0089, 3-(6-(5-(morpholinomethyl)furan-2-yl)thieno[3,2-d]pyrimidin-4-ylamino)phenol] | > 70 | > 70 | 71 | 25 | 19 | 86 | > 70 | > 70 | > 70 | 59 | > 70 | – | –
C[C@@H]1CCC[C@H](C)N1Cc1ccc(-c2cc3ncnc(Nc4cccc(O)c4)c3s2)cc1.Cl [LCB 03-0059, 3-(6-(4-(((2R,6S)-2,6-dimethylpiperidin-1-yl)methyl)phenyl)thieno[3,2-d]pyrimidin-4-ylamino)phenol] | > 50 | > 80 | – | 56 | 29 | – | > 50 | > 50 | > 50 | 59 | > 80 | 74 | 88
CCNCc1ccc(-c2cc3ncnc(Nc4cccc(O)c4)c3s2)cc1 [LCB 03-0042] | > 80 | > 80 | – | 69 | 46 | – | > 80 | > 80 | > 80 | 33 | > 80 | 98 | 91
Oc1cccc(Nc2ncnc3cc(-c4ccc(CN5CCCC5)o4)sc23)c1 [LCB 03-0086, 3-(6-(5-(pyrrolidin-1-ylmethyl)furan-2-yl)thieno[3,2-d]pyrimidin-4-ylamino)phenol] | > 70 | > 80 | 68 | 33 | 21 | 72 | > 70 | > 70 | > 70 | 48 | > 80 | – | –
Oc1cccc(Nc2ncnc3cc(-c4cccc(CCN5CCNCC5)c4)sc23)c1 [LCB 03-0079, 3-(6-(3-(2-(piperazin-1-yl)ethyl)phenyl)thieno[3,2-d]pyrimidin-4-ylamino)phenol] | > 80 | > 80 | – | 61 | 41 | – | > 80 | > 80 | > 80 | 51 | > 80 | 67 | 74
Cl.Oc1cccc(Nc2ncnc3cc(-c4cccc(CN5CCNCC5)c4)sc23)c1 [LCB 03-0064, 3-(6-(3-(piperazin-1-ylmethyl)phenyl)thieno[3,2-d]pyrimidin-4-ylamino)phenol] | > 80 | > 80 | – | 66 | 41 | – | > 80 | > 80 | > 80 | 63 | > 80 | 73 | 79
Oc1cccc(Nc2ccnc3cc(-c4ccc(CN5CCCC5)cc4)sc23)c1 [LCB 03-0080, 3-(2-(4-(pyrrolidin-1-ylmethyl)phenyl)thieno[3,2-b]pyridin-7-ylamino)phenol] | > 60 | > 80 | 59 | 62 | 41 | 78 | > 60 | > 60 | > 60 | 53 | > 80 | – | –
Cl.Oc1cccc(Nc2ncnc3cc(-c4cccc(CCN5CCCC5)c4)sc23)c1 [LCB 03-0076, 3-(6-(3-(2-(pyrrolidin-1-yl)ethyl)phenyl)thieno[3,2-d]pyrimidin-4-ylamino)phenol] | > 80 | > 80 | – | 57 | 45 | – | > 80 | > 80 | > 80 | 54 | > 80 | 90 | 91
Oc1cccc(Nc2ccnc3cc(-c4cccc(CN5CCCCC5)c4)sc23)c1 [LCB 03-0109, 3-(2-(3-(piperidin-1-ylmethyl)phenyl)thieno[3,2-b]pyridin-7-ylamino)phenol] | > 70 | > 80 | 56 | 67 | 48 | 90 | > 70 | > 70 | > 70 | 52 | > 80 | – | –
Oc1cccc(Nc2ncnc3cc(-c4ccc(CN5CCCCC5)o4)sc23)c1 [LCB 03-0088, 3-(6-(5-(piperidin-1-ylmethyl)furan-2-yl)thieno[3,2-d]pyrimidin-4-ylamino)phenol] | > 70 | > 90 | 73 | 52 | 27 | 97 | > 70 | > 70 | > 70 | 51 | > 90 | – | –
Oc1cccc(Nc2ccnc3cc(-c4ccc(CN5CCOCC5)cc4)sc23)c1 [LCB 03-0083, 3-(2-(4-(morpholinomethyl)phenyl)thieno[3,2-b]pyridin-7-ylamino)phenol] | > 60 | > 80 | – | 55 | 33 | – | > 60 | > 60 | > 60 | 47 | > 80 | 62 | 71
Oc1cccc(Nc2ccnc3cc(-c4cccc(CN5CCNCC5)c4)sc23)c1 [LCB 03-0111, 3-(2-(3-(piperazin-1-ylmethyl)phenyl)thieno[3,2-b]pyridin-7-ylamino)phenol] | > 80 | > 90 | 57 | 79 | 58 | 92 | > 80 | > 80 | > 80 | 71 | > 90 | – | –
CN1CCN(Cc2cccc(-c3cc4nccc(Nc5cccc(O)c5)c4s3)c2)CC1 [LCB 03-0108, 3-(2-(3-((4-methylpiperazin-1-yl)methyl)phenyl)thieno[3,2-b]pyridin-7-ylamino)phenol] | > 80 | > 80 | 53 | 75 | 56 | 92 | > 80 | > 80 | > 80 | 63 | > 80 | – | –
Oc1cccc(Nc2ncnc3cc(-c4ccc(CN5CCNCC5)cc4)sc23)c1 [LCB 03-0033, 3-(6-(4-(piperazine-1-ylmethyl)phenyl)thieno[3,2-d]pyrimidin-4-ylamino)phenol] | > 60 | > 80 | – | 60 | 30 | – | > 60 | > 60 | > 60 | 22 | > 80 | 59 | 77
